These results are taken from paper PMC3715451, “Roles for Ordered and Bulk Solvent in Ligand Recognition and Docking in Two Related Cavities” (PLoS ONE, 2013).

Structures are written as SMILES. Entries after “also recorded” stand apart in the source; their conditions may differ. Like-named read-outs stand apart in the source and are kept apart here.

Experiment [1] has as its target T1, Cytochrome c Peroxidase Gateless cavity (P190G/W191G/Δ192-3) (Saccharomyces cerevisiae, UniProt P00431, A260G/D219G/DEL257-258/P257G/T120I/W258G).
T1 construct: made in house
As to the kind of experiment: Binding to the CcP Gateless cavity by titration of the UV-Vis Heme Soret band (or ITC). As to conditions: for Binding by UV-Vis: neutral docking hits, at up to 1 mM concentration. Here is the method:
(§1) Our first interest was to investigate the effect of opening the cavity to bulk solvent. Six known ligands of the buried W191G cavity were tested for binding to the Gateless cavity (P190G/W191G/Δ192-3) by UV-Vis titration or by Isothermal Titration Calorimetry (ITC) ( Figure 2 , Table S1 and Figure S1).
(§2) The compounds were tested for binding by measuring perturbation of the Heme Soret band at 10°C in 100 mM citrate buffer at pH 4.5 or 500 mM MES buffer pH 6.0 [27], [73]. To avoid competition with small cations like potassium, the pH of both buffer conditions was adjusted with Bis-Tris-Propane. Stock solutions were made up in DMSO and diluted into assay buffer to derive KD values in titration curves. KD values were obtained by fitting the difference absorbance of the Heme Soret band to a one-site binding hyperbola in GraphPad Prism (GraphPad Software, Inc.).
(§3) Experiments were performed as described. Assays were performed at 10°C in 100 mM citrate buffer at pH 4.5. Ligand stocks were prepared in buffer from overnight dialysis of the protein to prevent buffer mismatch.

In experiment [2] the test system is Cytochrome c Peroxidase Gateless cavity (P190G/W191G/Δ192-3). Described as above. As to conditions: for loss in affinity going from W191G to Gateless: ratio of KD Gateless / W191G; for improvement in affinity in Gateless versus closed W191G: ratio of KD W191G / Gateless. The method, then:
as §1, §2, §3

The target of a further experiment is T2, CcP Gateless (Saccharomyces cerevisiae, UniProt P00431, A260G/D219G/DEL257-258/P257G/T120I/W258G).
T2 construct: made in house
As to the kind of experiment: Low C-value Isothermal Titration Calorimetry against CcP Gateless. The class given is binding. As to conditions: ITC, 283K; † approximate value from partial ITC curves. Here is the method:
as §3
Table S1. ITC data (ΔG, ΔH and ΔS): binding of compounds 1, 2, 3, 4 and 6 to CcP Gateless at 283K.
For orientation: Isothermal titration calorimetry measures the heat released or taken up as one component is titrated into another.

For experiment [3], the target named is Cytochrome c Peroxidase W191G cavity. Particulars: closed W191G cavity, cited from earlier work.
[4] abbreviates: six known W191G ligands, UV-Vis titration or ITC, † = approximate KD by endpoint UV-Vis assay or partial ITC curves, limited by solubility, read-out: KD Gateless.
Setting [5] is: known ligands of W191G, reference not given, read-out: KD W191G.
Setting [6] is: compounds selected from the SEV docking screen, CcP Gateless cavity, UV-Vis Heme Soret band titration, read-out: KD.

T1 sequence (P00431 other isoform, or with tags, fused parts or gaps T120I/D219G/DEL257-258/A260G): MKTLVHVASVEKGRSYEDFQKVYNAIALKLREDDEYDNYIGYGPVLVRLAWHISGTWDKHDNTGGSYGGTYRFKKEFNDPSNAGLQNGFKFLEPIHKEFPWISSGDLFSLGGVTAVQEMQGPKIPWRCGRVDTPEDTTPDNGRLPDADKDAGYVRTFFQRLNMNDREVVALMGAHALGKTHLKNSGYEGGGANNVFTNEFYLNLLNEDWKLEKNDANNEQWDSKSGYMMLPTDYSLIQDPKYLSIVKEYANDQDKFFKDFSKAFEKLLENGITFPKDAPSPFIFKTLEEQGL
T2 sequence (P00431 other isoform, or with tags, fused parts or gaps T120I/D219G/DEL257-258/A260G): as above

In the case of `Cc1cnc(N)s1` [Compound 1, 2-amino-5-methylthiazole], the Kd in experiment [1] (setting [4]) was found to be 95 µM. Also, in experiment [2], the “loss in affinity going from W191G to Gateless” value (shortened to “loss in affinity going”) was found to be 16 fold. In addition, on CcP Gateless, the TΔS is 0.21 kcal/mol, the ΔG is on record as -5.21 kcal/mol and the ΔH is recorded as -5.00 kcal/mol. Moreover, the Kd in experiment [3] (setting [5]) is 6 µM.

Regarding `Nc1ccnc(N)n1` [Compound 2, 2,4-diaminopyrimidine], in experiment [1] (setting [4]), the Kd came to 389 µM. Also, in experiment [2], the “loss in affinity going” value is on record as 8 fold. Further, on CcP Gateless, the TΔS is listed as -1.14 kcal/mol, the ΔG is -4.42 kcal/mol and the ΔH is recorded as -5.56 kcal/mol. Moreover, in experiment [3] (setting [5]), the Kd is 50 µM.

With `Nc1cccc(N)n1` [Compound 3, 2,6-diaminopyridine], the Kd in experiment [1] (setting [4]) is 38 µM. Further, the “improvement in affinity in Gateless versus closed W191G” value in experiment [2] was “about 1.5 fold”. Moreover, at CcP Gateless, the TΔS is given as -3.31 kcal/mol, the ΔG is given as -5.73 kcal/mol and the ΔH is on record as -9.04 kcal/mol. Also, the Kd in experiment [3] (setting [5]) was 60 µM.

`C[n+]1cccc(N)c1` [Compound 4, 3-amino-1-methylpyridinium]: the Kd in experiment [1] (setting [4]) was about 3000 µM. The “loss in affinity going” value in experiment [2] was found to be 6 fold. Besides, on CcP Gateless, the TΔS is given as ~-3.6† kcal/mol, the ΔG is ~-3.6† kcal/mol and the ΔH is ~-7.2† kcal/mol. Also, the Kd in experiment [3] (setting [5]) is 500 µM.

Turning to `Oc1ccccc1` [Compound 5, Phenol], the “change of affinity between the two cavities” value in experiment [2] (W191G versus Gateless) is “almost unchanged”. Also, the Kd in experiment [3] (setting [5]) was 4100 µM.

Regarding `Oc1cccc(F)c1O` [Compound 6, 3-fluorocatechol], the Kd was 3100 µM in experiment [1] (open Gateless cavity, read-out: affinity in Gateless); about 3100 µM in experiment [1] (setting [4]); 7700 µM in experiment [3] (no reference given, read-out: affinity in W191G). For the same compound, the “improvement in affinity in Gateless versus closed W191G” value in experiment [2] was 2 fold. Moreover, at CcP Gateless, the ΔG is given as ~-3.2† kcal/mol. In addition, the ΔH on CcP Gateless is ~-1.0† kcal/mol.

With `O=C(/C=C/c1ccc(F)cc1)c1ccco1` [Compound 7], the “Binding by UV-Vis” value in experiment [1] was “none showed measurable affinity; also recorded: No binding”.

For the compound `O=C(Oc1ccccc1)c1ccc2n[nH]nc2c1` [Compound 8], the “Binding by UV-Vis” value in experiment [1] is “none showed measurable affinity; also recorded: No binding”.

Regarding `O=C(Oc1cccc([N+](=O)[O-])c1)c1ccncc1` [Compound 9], the “Binding by UV-Vis” value in experiment [1] was “none showed measurable affinity; also recorded: No binding”.

For the compound `Nc1c2c(nc3sccc13)CCCC2` [Compound 10, 5,6,7,8-tetrahydrothieno[2,3-b]quinolin-4-amine], the Kd in experiment [1] (setting [6]) worked out at 64 µM.

For `Nc1c(Br)cnc2ccccc12` [Compound 11], the Kd in experiment [1] (setting [6]) was found to be 19 µM.

Consider `Nc1c([N+](=O)[O-])cnc2ccccc12` [Compound 13], for which the Kd in experiment [1] (setting [6]) is 8 µM.

For `Nc1cccc2nccn12` [Compound 14, imidazo[1,2-a]pyridin-5-amine], in experiment [1] (setting [6]), the Kd is 14 µM.

With `Cn1ccnc1Sc1ccccc1N` [Compound 15], in experiment [1] (setting [6]), the Kd was 203 µM.

Consider `COc1ccc(Nc2cc(C)nc(N)n2)cc1` [Compound 16], for which the Kd in experiment [1] (setting [6]) stood at 17 µM.

On to `OCc1cnc2cc[nH]c2c1` [Compound 17, (1H-Pyrrolo[3,2-b]pyridin-6-yl)methanol], for which the Kd in experiment [1] (setting [6]) was 982 µM.

For the compound `Cc1cc(N)n(-c2ccccc2[N+](=O)[O-])n1` [Compound 18], the Kd in experiment [1] (setting [6]) worked out at 823 µM.

As for `C[C@@H](O)CNc1ncnc2ccccc12` [Compound 19], in experiment [1] (setting [6]), the Kd was 37 µM.

For `Nc1ccc2nccn2c1` [Compound 20, Imidazo[1,2-a]pyridin-6-amine], the Kd in experiment [1] (setting [6]) is 290 µM.

In the case of `Cc1cn2cccc(O)c2n1` [Compound 21], the Kd in experiment [1] (setting [6]) turned out to be 16 µM.

On to `CNc1nc2ccccc2[nH]1` [Compound 22, N-methyl-1H-1,3-benzodiazol-2-amine], for which the Kd in experiment [1] (setting [6]) is 288 µM.

On to `Nc1ncc(C=O)c(N)n1` [Compound 23], for which the KD result in experiment [1] (compounds selected from the SEV docking screen, CcP Gateless cavity, UV-Vis Heme Soret band titration) is “Non Binder”.

Regarding `O=Cc1cnc2cc[nH]c2c1` [Compound 24, 1H-Pyrrolo[3,2-b] pyridine-6-carbaldehyde], the Kd in experiment [1] (setting [6]) was over 2000 µM.
